In assay [1] the target is T1, human recombinant GST cleaved CSNK1D (Homo sapiens, UniProt P48730).
T1 construct: GST (cleaved yes); purchased University of Dundee clone DU 19064
Nature of the assay: Purified Enzyme Assay (ADP-Glo CSNK1D Kinase Assay). The note with it: 2 nM CSNK1D; peptide substrate 150 μM; ATP 20 μM; 45 minutes at room temperature. The class given is biochemical. Summed up:
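Percent activity derived from ADP-Glo quantification of ADP produced. Reactions: compound dose-response with human recombinant GST-cleaved CSNK1D, ATP and substrate peptide PLSRTL-pS-VASLPGL, incubated 45 min at room temperature.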
(ADP-Glo first removes unused ATP, then detects ADP through luciferase.)

In a further assay the target is T2, human CSNK1D (Homo sapiens, UniProt P48730).
T2 construct: expressed in transfected cells
Nature of the assay: Whole Cell nBRET CSNK1D Binding Assay. The note with it: living CHO cells stably expressing human CSNK1D tagged with nanoluciferase; NanoBret tracer 130 nM; 2 hours at 37 C.

T1 sequence (P48730 whole entry): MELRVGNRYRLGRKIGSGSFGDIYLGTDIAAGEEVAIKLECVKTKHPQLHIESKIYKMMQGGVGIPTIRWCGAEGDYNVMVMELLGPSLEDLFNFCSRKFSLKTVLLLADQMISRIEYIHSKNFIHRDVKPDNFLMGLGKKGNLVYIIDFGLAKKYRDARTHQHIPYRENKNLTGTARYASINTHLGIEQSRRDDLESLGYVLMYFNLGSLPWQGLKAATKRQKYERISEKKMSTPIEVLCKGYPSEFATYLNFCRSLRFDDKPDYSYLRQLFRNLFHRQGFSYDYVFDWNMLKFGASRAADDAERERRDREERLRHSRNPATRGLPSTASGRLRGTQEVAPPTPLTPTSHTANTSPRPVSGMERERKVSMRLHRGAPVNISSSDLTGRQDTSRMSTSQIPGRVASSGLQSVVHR
T2 sequence (P48730 whole entry): as above

In general, IC50 refers to the point on the concentration scale where inhibition reaches its midpoint. For the molecule `Fc1ccc(-c2nn3c(c2-c2c(F)cnc4[nH]ncc24)CC2(C3)CC2(F)F)nc1` (single isomer, unassigned) [Example 258, (*S)-2,2-Difluoro-3′-(5-fluoro-1H-pyrazolo[3,4-b]pyridin-4-yl)-2′-(5-fluoropyridin-2-yl)-4′H,6′H-spiro[cyclopropane-1,5′-pyrrolo[1,2-b]pyrazole]], the IC50 in assay [1] stood at 6 nM; on human CSNK1D it was 71 nM.

Regarding `Fc1ccc(-c2nn3c(c2-c2c(F)cnc4[nH]ncc24)CC2(C3)CC2(F)F)nc1` (single isomer, unassigned) [Example 259, (*R)-1′.1′-Difluoro-3-(5-fluoro-1H-pyrazolo[3,4-b]pyridin-4-yl)-2-(5-fluoro-2-pyridyl)spiro[4,6-dihydropyrrolo[1,2-b]pyrazole-5,2′-cyclopropane]], the values for the IC50 (in assay [1]; on human CSNK1D) were 79 nM and 1920 nM, respectively.

Take `Cc1cc(-c2c(-c3ccc(F)cn3)nn3c2C[C@@]2(C3)CC2(F)F)c2cn[nH]c2n1` (single isomer, unassigned) [Example 260, (*S)-1′,1′-Difluoro-2-(5-fluoro-2-pyridyl)-3-(6-methyl-1H-pyrazolo[3,4-b]pyridin-4-yl)spiro[4,6-dihydropyrrolo[1,2-b]pyrazole-5,2′-cyclopropane]]: the IC50 in assay [1] was 3 nM; on human CSNK1D it was 107 nM.

For `Cc1cc(-c2c(-c3ccc(F)cn3)nn3c2CC2(C3)CC2(F)F)c2cn[nH]c2n1` (single isomer, unassigned) [Example 261, (*R)-1′,1′-Difluoro-2-(5-fluoro-2-pyridyl)-3-(6-methyl-1H-pyrazolo[3,4-b]pyridin-4-yl)spiro[4,6-dihydropyrrolo[1,2-b]pyrazole-5,2′-cyclopropane]], the IC50 came out at 63 nM in assay [1] and 2670 nM at human CSNK1D.

Consider `Cc1cc(-c2c(-c3ccc(F)cn3)nn3c2C[C@@]2(C3)CC2(F)F)c2c(Cl)n[nH]c2n1` (single isomer, unassigned) [Example 262, (*S)-3′-(3-Chloro-6-methyl-1H-pyrazolo[3,4-b]pyridin-4-yl)-2,2-difluoro-2′-(5-fluoropyridin-2-yl)-4′H,6′H-spiro[cyclopropane-1,5′-pyrrolo[1,2-b]pyrazole]], for which the IC50 in assay [1] amounted to 5 nM; on human CSNK1D it was 15 nM.

As for `Cc1nc2[nH]ncc2c(-c2c(-c3ccc(F)cn3)nn3c2CC2(C3)CC2(F)F)c1F` (single isomer, unassigned) [Example 263, (*R)-1′.1′-Difluoro-3-(5-fluoro-6-methyl-1H-pyrazolo[3,4-b]pyridin-4-yl)-2-(5-fluoro-2-pyridyl)spiro[4,6-dihydropyrrolo[1,2-b]pyrazole-5,2′-cyclopropane]], the results for the IC50 (in assay [1]; on human CSNK1D) were 54 nM and 1460 nM, respectively.

For the molecule `Cc1nc2[nH]ncc2c(-c2c(-c3ccc(F)cn3)nn3c2CC2(C3)CC2(F)F)c1F` (single isomer, unassigned) [Example 264, (*S)-1′.1′-Difluoro-3-(5-fluoro-6-methyl-1H-pyrazolo[3,4-b]pyridin-4-yl)-2-(5-fluoro-2-pyridyl)spiro[4,6-dihydropyrrolo[1,2-b]pyrazole-5,2′-cyclopropane]], the values for the IC50 (in assay [1]; at human CSNK1D) were 4 nM and 20 nM, respectively.

Regarding `Cc1nc2[nH]nc(C)c2c(-c2c(-c3ccc(F)cn3)nn3c2CC2(C3)CC2(F)F)c1F` (single isomer, unassigned) [Example 265, (*R)-1′.1′-Difluoro-3-(5-fluoro-3,6-dimethyl-1H-pyrazolo[3,4-b]pyridin-4-yl)-2-(5-fluoro-2-pyridyl)spiro[4,6-dihydropyrrolo[1,2-b]pyrazole-5,2′-cyclopropane]], the IC50 in assay [1] stood at 10 nM; on human CSNK1D it was 37 nM.

For `Cc1nc2[nH]nc(C)c2c(-c2c(-c3ccc(F)cn3)nn3c2CC2(C3)CC2(F)F)c1F` (single isomer, unassigned) [Example 266, (*S)-1′1l′-Difluoro-3-(5-fluoro-3,6-dimethyl-1H-pyrazolo[3,4-b]pyridin-4-yl)-2-(5-fluoro-2-pyridyl)spiro[4,6-dihydropyrrolo[1,2-b]pyrazole-5,2′-cyclopropane]], the figures for the IC50 (in assay [1]; at human CSNK1D) were 52 nM and 337 nM, respectively.

Take `Cc1cc(-c2c(-c3ccc(F)cc3)nn3c2[C@H]2C[C@H]2C3)c2cn[nH]c2n1` (single isomer, unassigned) [Example 277, (3b*S,4a*R)-2-(4-Fluorophenyl)-3-(6-methyl-1H-pyrazolo[3,4-b]pyridin-4-yl)-3b,4,4a,5-tetrahydrocyclopropa[3,4]pyrrolo[1,2-b]pyrazole]: the IC50 stood at 6 nM in assay [1] and 43 nM on human CSNK1D.

With `CC1(CF)CCc2c(-c3ccncc3)c(-c3ccc(F)cn3)nn2C1` (single isomer, unassigned) [Example 284, (*S)-6-(Fluoromethyl)-2-(5-fluoro-2-pyridyl)-6-methyl-3-(4-pyridyl)-5,7-dihydro-4H-pyrazolo[1,5-a]pyridine], the results for the IC50 (in assay [1]; on human CSNK1D) were 6 nM and 68 nM, respectively.

As for `C[C@@]1(CF)CCc2c(-c3ccncc3)c(-c3ccc(F)cn3)nn2C1` (single isomer, unassigned) [Example 285, (*R)-6-(Fluoromethyl)-2-(5-fluoro-2-pyridyl)-6-methyl-3-(4-pyridyl)-5,7-dihydro-4H-pyrazolo[1,5-a]pyridine], the IC50 in assay [1] was 11 nM; on human CSNK1D it was 100 nM.

As for `CC1(CF)CCc2c(-c3ccnc(N)c3)c(-c3ccc(F)cn3)nn2C1` (single isomer, unassigned) [Example 286, (*S)-4-[6-(Fluoromethyl)-2-(5-fluoro-2-pyridyl)-6-methyl-5,7-dihydro-4H-pyrazolo[1,5-a]pyridin-3-yl]pyridin-2-amine], the IC50 in assay [1] is 4 nM; on human CSNK1D, 81 nM.

Consider `CC1(CF)CCc2c(-c3ccnc(N)c3)c(-c3ccc(F)cn3)nn2C1` (single isomer, unassigned) [Example 287, (*R)-4-[6-(Fluoromethyl)-2-(5-fluoro-2-pyridyl)-6-methyl-5,7-dihydro-4H-pyrazolo[1,5-a]pyridin-3-yl]pyridin-2-amine], for which the values for the concentration for half-maximal inhibition (IC50) (in assay [1]; on human CSNK1D) were 5 nM and 68 nM, respectively.

Turning to `CC1(CF)CCc2c(-c3ccn4nccc4c3)c(-c3ccc(F)cn3)nn2C1` (single isomer, unassigned) [Example 289, (*R)-5-[6-(Fluoromethyl)-2-(5-fluoro-2-pyridyl)-6-methyl-5,7-dihydro-4H-pyrazolo[1,5-a]pyridin-3-yl]pyrazolo[1,5-a]pyridine], the values for the IC50 (in assay [1]; at human CSNK1D) were 94 nM and 114 nM, respectively.

In the case of `CC1(CF)CCc2c(-c3ccn4nccc4c3)c(-c3ccc(F)cn3)nn2C1` (single isomer, unassigned) [Example 290, (*S)-5-[6-(Fluoromethyl)-2-(5-fluoro-2-pyridyl)-6-methyl-5,7-dihydro-4H-pyrazolo[1,5-a]pyridin-3-yl]pyrazolo[1,5-a]pyridine], the IC50 in assay [1] was determined as 539 nM; at human CSNK1D, 120 nM.

With `C[C@@]1(CF)CCc2c(-c3ccnc4[nH]nc(Cl)c34)c(-c3ccc(F)cn3)nn2C1` (single isomer, unassigned) [Example 291, (*R)-3-Chloro-4-(6-(fluoromethyl)-2-(5-fluoropyridin-2-yl)-6-methyl-4,5,6,7-tetrahydropyrazolo[1,5-a]pyridin-3-yl)-1H-pyrazolo[3,4-b]pyridine], the IC50 in assay [1] came to 5 nM; at human CSNK1D, 6 nM.

With `C[C@@]1(CF)CCc2c(-c3c(F)cnc4[nH]ncc34)c(-c3ccc(F)cn3)nn2C1` (single isomer, unassigned) [Example 292, (*R)-5-Fluoro-4-[6-(fluoromethyl)-2-(5-fluoro-2-pyridyl)-6-methyl-5,7-dihydro-4H-pyrazolo[1,5-a]pyridin-3-yl]-1H-pyrazolo[3,4-b]pyridine], the IC50 in assay [1] is 3 nM; on human CSNK1D, 21 nM.

For `CC1(CF)CCc2c(-c3c(F)cnc4[nH]ncc34)c(-c3ccc(F)cn3)nn2C1` (single isomer, unassigned) [Example 293, (*S)-5-Fluoro-4-[6-(fluoromethyl)-2-(5-fluoro-2-pyridyl)-6-methyl-5,7-dihydro-4H-pyrazolo[1,5-a]pyridin-3-yl]-1H-pyrazolo[3,4-b]pyridine], the IC50 was 2 nM in assay [1] and 18 nM at human CSNK1D.

For `[2H]C([2H])([2H])[C@@]1(C([2H])([2H])F)CCc2c(-c3c(F)cnc4[nH]ncc34)c(-c3ccc(F)cn3)nn2C1` (single isomer, unassigned) [Example 294, (*R)-5-Fluoro-4-(6-(fluoromethyl-d2)-2-(5-fluoropyridin-2-yl)-6-(methyl-d3)-4,5,6,7-tetrahydropyrazolo[1,5-a]pyridin-3-yl)-1H-pyrazolo[3,4-b]pyridine], the concentration for half-maximal inhibition (IC50) in assay [1] was determined as 2 nM; on human CSNK1D, 23 nM.

Regarding `[2H]C([2H])([2H])[C@]1(C([2H])([2H])F)CCc2c(-c3c(F)cnc4[nH]ncc34)c(-c3ccc(F)cn3)nn2C1` (single isomer, unassigned) [Example 295, (*S)-5-Fluoro-4-(6-(fluoromethyl-d2)-2-(5-fluoropyridin-2-yl)-6-(methyl-d5)-4,5,6,7-tetrahydropyrazolo[1,5-a]pyridin-3-yl)-1H-pyrazolo[3,4-b]pyridine], the IC50 stood at 2 nM in assay [1] and 24 nM at human CSNK1D.

Consider `COCC1CCc2c(-c3cc(C)nc4[nH]ncc34)c(-c3ccc(F)cn3)nn2C1` (single isomer, unassigned) [Example 296, (*S)-4-[2-(5-Fluoro-2-pyridyl)-6-(methoxymethyl)-4,5,6,7-tetrahydropyrazolo[1,5-a]pyridin-3-yl]-6-methyl-1H-pyrazolo[3,4-b]pyridine], for which the results for the IC50 (in assay [1]; at human CSNK1D) were 17 nM and 240 nM, respectively.

These data come from patent US20230339970A1, “CASEIN KINASE 1 DELTA MODULATORS” (priority 2020, published 2023).
